Data on eight compounds can be found in patent US8367718B2, “Epigallocatechin gallate trimer and α-glucosidase inhibitor containing epigallocatechin gallate polymer” (Suntory Holdings Limited, priority 2008, dated 2013).

“Also recorded” adds a separate entry of the source.

The target of one assay is maltase. Particulars: background art, literature values; read-out: maltase inhibitory activity IC50; cited from earlier work.
The subject of the next assay is α-glucosidase. Description: Alpha-glucosidase inhibitory activity of EGCG polymers (p-nitrophenyl-α-D-glucopyranoside substrate, A405 nm). It counts as biochemical. Particulars: for α-glucosidase inhibitory activity (in words): qualitative statement; for inhibitory activity relative to the EGCG monomer: α-glucosidase, compared with EGCG monomer. Here is the method:
A […] sodium phosphate buffer solution was prepared by blending 0.1 M NaH2PO4.2H2O and 0.1M Na2HPO4.12H2O and the pH was adjusted to 7.0. To this, 2 g/L bovine serum albumin (F-V, manufactured by Nacalai Tesque Inc., pH 5.2, purity 96%) and 0.2 g/L NaN3 (manufactured by Nacalai Tesque Inc., special grade reagent) were added. An enzyme solution was prepared by dissolving α-glucosidase (manufactured by Wako Pure Chemical Industries Ltd., derived from yeast, 100 units/mg) in the above buffer solution so as to obtain 0.5 units/mg protein /ml (100 μg/20 ml). A substrate solution was prepared by dissolving p-nitrophenyl-α-D-glucopyranoside (manufactured by Nacalai Tesque Inc., special grade reagent) in the buffer solution so as to obtain 5 mM (7.525 mg/5 ml).
Of the samples used for evaluation, theasinensin (TSN)-A and TSN-D were synthesized in accordance with the paper (Hashimoto, F. Nonaka, G. Nishioka, I. Chem. Pharm. Bull. 36 (5), 1676-1684 (1988)) and oolongtheanin-gallate (hereinafter referred to as “OTNG”) were synthesized in accordance with the method described in the paper of J. Agric. Food Chem. 53, 4593-4598 (2005).
These samples were prepared so as to satisfy 10 mg/ml DMSO and serially diluted 6 times by doubling dilution. Using a 96-well microplate, enzyme solution (45 μL) was added to a sample solution (10 μL) and pre-incubated at 37° C. for 5 minutes. Thereafter, the substrate solution (45 μL) was added and absorbance was measured at A 405 nm. After incubation was performed at 37° C. for 5 minutes, absorbance was measured at A 405 nm. The inhibition rate was calculated as a difference from the absorbance at A405 nm of a control, which contains DMSO alone in place of a sample. Each activity measurement was performed twice.

For the compound 3-sophoroside-5-glucoside of peonidin, the half-maximal inhibitory concentration (IC50) – broadly, the concentration at which inhibition is half-maximal – on maltase was 200 µM. As to `O=C(O[C@@H]1Cc2c(O)cc(O)cc2O[C@@H]1c1cc(O)c(O)c(O)c1-c1c([C@H]2Oc3cc(O)cc(O)c3C[C@H]2OC(=O)c2cc(O)c(O)c(O)c2)cc(O)c(O)c1O)c1cc(O)c(O)c(O)c1` (single isomer, unassigned) [TSN-A, theasinensin A], on maltase, the IC50 is 142 µM. For the compound `O=C(O[C@@H]1Cc2c(O)cc(O)cc2O[C@@H]1c1cc(O)c(O)c(O)c1-c1c([C@H]2Oc3cc(O)cc(O)c3C[C@H]2OC(=O)c2cc(O)c(O)c(O)c2)cc(O)c(O)c1O)c1cc(O)c(O)c(O)c1` (single isomer, unassigned) [TSN-D, theasinensin-D], the “α-glucosidase inhibitory activity (in words)” value in the assay on α-glucosidase was “strong α-glucosidase inhibitory activity”. `O=C(O[C@@H]1Cc2c(cc(O)c(Cc3c(O)cc(O)c4c3O[C@H](c3cc(O)c(O)c(O)c3)[C@H](OC(=O)c3cc(O)c(O)c(O)c3)C4)c2O)O[C@@H]1c1cc(O)c(O)c(O)c1)c1cc(O)c(O)c(O)c1` [OHBF-B, oolong homobisflavan-B]: in the assay with α-glucosidase, the “α-glucosidase inhibitory activity (in words)” value was “strong α-glucosidase inhibitory activity”. As for `O=C(OC1Cc2c(O)cc(O)c(Cc3c(O)c(Cc4c(O)c(Cc5c(O)cc(O)c6c5OC(c5cc(O)c(O)c(O)c5)C(OC(=O)c5cc(O)c(O)c(O)c5)C6)c5c(c4O)CC(OC(=O)c4cc(O)c(O)c(O)c4)C(c4cc(O)c(O)c(O)c4)O5)c4c(c3O)CC(OC(=O)c3cc(O)c(O)c(O)c3)C(c3cc(O)c(O)c(O)c3)O4)c2OC1c1cc(O)c(O)c(O)c1)c1cc(O)c(O)c(O)c1` [OHBF-tetramer-1, (2R,3R)-8-(H2R,3R)-8-(((2R,3R)-8-(((2R,3R)-5,7-dihydroxy-3-(3,4,5-trihydroxybenzoyloxy)-2-(3,4,5-trihydroxyphenyl)chroman-8-yl)methyl)-5,7-dihydroxy-3-(3,4,5-trihydroxybenzoyloxy)-2-(3,4,5-trihydroxyphenyl)chroman-6-yl)methyl)-5,7-dihydroxy-3-(3,4,5-trihydroxybenzoyloxy)-2-(3,4,5-trihydroxyphenyl)chroman-6-yl)methyl)-5,7-dihydroxy-2-(3,4,5-trihydroxyphenyl)chroman-3-yl 3,4,5-trihydroxybenzoate], the “α-glucosidase inhibitory activity (in words)” value is given as “particularly strong activities” with α-glucosidase (listed as Oolong homobisflavan-tetramer-1) and “significant inhibitory activity; also recorded: high activity” with α-glucosidase (listed as oolong homobisflavan-tetramer-1). Further, the “inhibitory activity relative to the EGCG monomer” value in the assay on α-glucosidase was found to be 10 times. For the compound `O=C(OC1Cc2c(O)cc(O)c(Cc3c(O)c(Cc4c(O)c(Cc5c(O)cc(O)c6c5OC(c5cc(O)c(O)c(O)c5)C(OC(=O)c5cc(O)c(O)c(O)c5)C6)c(O)c5c4OC(c4cc(O)c(O)c(O)c4)C(OC(=O)c4cc(O)c(O)c(O)c4)C5)c4c(c3O)CC(OC(=O)c3cc(O)c(O)c(O)c3)C(c3cc(O)c(O)c(O)c3)O4)c2OC1c1cc(O)c(O)c(O)c1)c1cc(O)c(O)c(O)c1` [OHBF-tetramer-2, (2R,2′R,3R,3′R)-8,8′-(2R,2′R,3R,3′R)-8,8′-methylenebis(5,7-dihydroxy-3-(3,4,5-trihydroxybenzoyloxy)-2-(3,4,5-trihydroxyphenyl)chroman-8,6-diyl)bis(methylene)bis(5,7-dihydroxy-2-(3,4,5-trihydroxyphenyl)chroman-8,3-diyl) bis(3,4,5-trihydroxybenzoate)], the “α-glucosidase inhibitory activity (in words)” value in the assay with α-glucosidase was “significant inhibitory activity”.

With `O=C(O[C@@H]1Cc2c(cc(O)c(Cc3c(O)c(Cc4c(O)cc(O)c5c4O[C@H](c4cc(O)c(O)c(O)c4)[C@H](OC(=O)c4cc(O)c(O)c(O)c4)C5)c(O)c4c3O[C@H](c3cc(O)c(O)c(O)c3)[C@H](OC(=O)c3cc(O)c(O)c(O)c3)C4)c2O)O[C@@H]1c1cc(O)c(O)c(O)c1)c1cc(O)c(O)c(O)c1` [OHBF-trimer-2, (2R,3R)-8-(((2R,3R)-8-(((2R,3R)-5,7-dihydroxy-3-(3,4,5-trihydroxybenzoyloxy)-2-(3,4,5-trihydroxyphenyl)chroman-6-yl)methyl)-5,7-dihydroxy-3-(3,4,5-trihydroxybenzoyloxy)-2-(3,4,5-trihydroxyphenyl)chroman-6-yl)methyl)-5,7-dihydroxy-2-(3,4,5-trihydroxyphenyl)chroman-3-yl 3,4,5-trihydroxybenzoate], the “α-glucosidase inhibitory activity (in words)” value in the assay on α-glucosidase is reported as “significant inhibitory activity”. Take `O=C(O[C@@H]1Cc2c(cc(O)c(Cc3c(O)c(Cc4c(O)cc(O)c5c4O[C@H](c4cc(O)c(O)c(O)c4)[C@H](OC(=O)c4cc(O)c(O)c(O)c4)C5)c4c(c3O)C[C@@H](OC(=O)c3cc(O)c(O)c(O)c3)[C@@H](c3cc(O)c(O)c(O)c3)O4)c2O)O[C@@H]1c1cc(O)c(O)c(O)c1)c1cc(O)c(O)c(O)c1` [OHBF-trimer-4, (2R,3R)-8-(((2R,3R)-6-(((2R,3R)-5,7-dihydroxy-3-(3,4,5-trihydroxybenzoyloxy)-2-(3,4,5-trihydroxyphenyl)chroman-6-yl)methyl)-5,7-dihydroxy-3-(3,4,5-trihydroxybenzoyloxy)-2-(3,4,5-trihydroxyphenyl)chroman-8-yl)methyl)-5,7-dihydroxy-2-(3,4,5-trihydroxyphenyl)chroman-3-yl 3,4,5-trihydroxybenzoate]: the “α-glucosidase inhibitory activity (in words)” value in the assay with α-glucosidase (listed as oolong homobisflavan-trimer-4) is “particularly strong activities; also recorded: significant inhibitory activity; also recorded: high activity”. For the same compound, the “inhibitory activity relative to the EGCG monomer” value in the assay with α-glucosidase was 10 times.
